Data from BindingDB's records for doi:10.1021/acs.jmedchem.0c01316 (Agricultural University of Athens, 2020).

Assay: Inhibition of human RANKL-induced osteoclastogenesis in RANKL cultured mouse bone marrow cells assessed as reduction in RANKL/M-CSF-induced TRAP activity preincubated with RANKL for 1 hr followed by cell addition and subsequent media replenishment every 48 hrs for 4 days

SMILES | IC50
CN(CCN(C)S(=O)(=O)c1ccc(C#N)cc1)C(=O)c1cn(S(=O)(=O)c2cccc([N+](=O)[O-])c2)c2ccccc12 | 2 µM
Cc1cc2occ(CN(C)CCN(C)Cc3cn(-c4cccc(C(F)(F)F)c4)c4ccccc34)c(=O)c2cc1C | 1 µM
CN(CCN(C)S(=O)(=O)c1cccc([N+](=O)[O-])c1)C(=O)c1cn(S(=O)(=O)c2cccc([N+](=O)[O-])c2)c2ccccc12 | 1.9 µM
O=C(c1cn(S(=O)(=O)c2cccc([N+](=O)[O-])c2)c2ccccc12)N1CCN(S(=O)(=O)c2ccccc2)CC1 | 1.4 µM
CN(CCN(C)C(=O)c1cn(-c2cccc([N+](=O)[O-])c2)c2ccccc12)C(=O)c1coc2ccccc2c1=O | 1.88 µM
CN(CCN(C)C(=O)c1cn(S(=O)(=O)c2ccccc2)c2ccccc12)C(=O)c1coc2ccccc2c1=O | 2.86 µM
N#Cc1ccc(S(=O)(=O)N2CCN(C(=O)c3cn(S(=O)(=O)c4cccc([N+](=O)[O-])c4)c4ccccc34)CC2)cc1 | 5.1 µM
CN(CCN(C)S(=O)(=O)c1ccccc1)C(=O)c1cn(S(=O)(=O)c2cccc([N+](=O)[O-])c2)c2ccccc12 | 2.7 µM
CN(CCN(C)Cc1cn(S(=O)(=O)c2ccccc2)c2ccccc12)Cc1coc2ccccc2c1=O | 2.5 µM
CN(CCN(C)C(=O)c1cn(S(=O)(=O)c2cccc([N+](=O)[O-])c2)c2ccccc12)C(=O)c1coc2ccccc2c1=O | 5.07 µM
O=C(c1cn(S(=O)(=O)c2cccc([N+](=O)[O-])c2)c2ccccc12)N1CCN(S(=O)(=O)c2cccc([N+](=O)[O-])c2)CC1 | 6.4 µM
